Reference: the NIST ThermoML archive (doi:10.1016/j.tca.2015.06.020)
± gives the expanded uncertainty stated by the source.

Details: Crystal; DTA

| Normal melting temperature | Structure (SMILES) |
| --- | --- |
| 168.96 ± 3 °C | COc1ccc([N+](=O)[O-])c(-n2ccnn2)c1[N+](=O)[O-] [1-(3-methoxy-2,6-dinitrophenyl)-1H-1,2,3-triazole] |
| 90.13 ± 3 °C | COc1c([N+](=O)[O-])cc(Cn2ccnn2)cc1[N+](=O)[O-] [1-(4-methoxy-3,5-dinitrobenzyl)-1H-1,2,3-triazole] |
